Converted amounts (≈) assume the structure as drawn.
Assays:
Type in all cases: functional
Fusarium solani = experiment: Antifungal activity against 0.4x10'4 to 5x10^4 CFU/ml Fusarium solani after 48 hrs by CLSI M38-A broth microdilution method
Fusarium verticillioides = experiment: Antifungal activity against 0.4x10'4 to 5x10^4 CFU/ml Fusarium moniliforme after 48 hrs by CLSI M38-A broth microdilution method
Fusarium avenaceum = experiment: Antifungal activity against 0.4x10'4 to 5x10^4 CFU/ml Fusarium avenaceum after 48 hrs by CLSI M38-A broth microdilution method
Fusarium oxysporum = experiment: Antifungal activity against 0.4x10'4 to 5x10^4 CFU/ml Fusarium oxysporum after 48 hrs by CLSI M38-A broth microdilution method
Fusarium poae = experiment: Antifungal activity against 0.4x10'4 to 5x10^4 CFU/ml Fusarium poae after 48 hrs by CLSI M38-A broth microdilution method
Fusarium sp. = experiment: Antifungal activity against 0.4x10'4 to 5x10^4 CFU/ml Fusarium sp. after 48 hrs by CLSI M38-A broth microdilution method
Aspergillus flavus = experiment: Antifungal activity against 0.4x10'4 to 5x10^4 CFU/ml Aspergillus flavus after 48 hrs by CLSI M38-A broth microdilution method
Aspergillus fumigatus = experiment: Antifungal activity against 0.4x10'4 to 5x10^4 CFU/ml Aspergillus fumigatus after 48 hrs by CLSI M38-A broth microdilution method
Aspergillus oryzae = experiment: Antifungal activity against 0.4x10'4 to 5x10^4 CFU/ml Aspergillus oryzae after 48 hrs by CLSI M38-A broth microdilution method
Aspergillus versicolor = experiment: Antifungal activity against 0.4x10'4 to 5x10^4 CFU/ml Aspergillus versicolor after 48 hrs by CLSI M38-A broth microdilution method
Aspergillus niger = experiment: Antifungal activity against 0.4x10'4 to 5x10^4 CFU/ml Aspergillus niger after 48 hrs by CLSI M38-A broth microdilution method
Aspergillus sp. = experiment: Antifungal activity against 0.4x10'4 to 5x10^4 CFU/ml Aspergillus sp. after 48 hrs by CLSI M38-A broth microdilution method

In the case of `C[C@@H]1C/C=C/C=C/C=C/C=C/[C@H](O[C@@H]2O[C@H](C)[C@@H](O)[C@H](N)[C@@H]2O)C[C@@H]2O[C@](O)(C[C@@H](O)C[C@H]3O[C@@H]3/C=C/C(=O)O1)C[C@H](O)[C@H]2C(=O)O` [NATAMYCIN], the MIC (Fusarium solani) is reported as 4 µg/mL (≈ 6.01 µM), the MIC50 (Fusarium solani) is reported as 4 µg/mL (≈ 6.01 µM) and the MIC90 (Fusarium solani) is reported as 8 µg/mL (≈ 12 µM). The MIC (Fusarium verticillioides) was 4 µg/mL (≈ 6.01 µM), the MIC50 (Fusarium verticillioides) was 4 µg/mL (≈ 6.01 µM) and the MIC90 (Fusarium verticillioides) was 8 µg/mL (≈ 12 µM). The MIC50 (Fusarium avenaceum) was 8 µg/mL (≈ 12 µM), the MIC90 (Fusarium avenaceum) was 8 µg/mL (≈ 12 µM) and the MIC (Fusarium oxysporum) was 4 µg/mL (≈ 6.01 µM). For the same compound, the MIC (Fusarium poae) was 4 µg/mL (≈ 6.01 µM), the MIC (Fusarium sp.) was 4 µg/mL (≈ 6.01 µM) and the MIC50 (Fusarium sp.) was 4 µg/mL (≈ 6.01 µM). For the same compound, the MIC90 (Fusarium sp.) was 8 µg/mL (≈ 12 µM), the MIC50 (Aspergillus flavus) was 32 µg/mL (≈ 48.1 µM) and the MIC90 (Aspergillus flavus) was 32 µg/mL (≈ 48.1 µM). It also gave an MIC (Aspergillus fumigatus) of 4 µg/mL (≈ 6.01 µM), an MIC50 (Aspergillus fumigatus) of 4 µg/mL (≈ 6.01 µM) and an MIC90 (Aspergillus fumigatus) of 4 µg/mL (≈ 6.01 µM). For the same compound, the MIC50 (Aspergillus oryzae) was 32 µg/mL (≈ 48.1 µM), the MIC90 (Aspergillus oryzae) was 32 µg/mL (≈ 48.1 µM) and the MIC50 (Aspergillus versicolor) was 8 µg/mL (≈ 12 µM). The MIC90 (Aspergillus versicolor) was 32 µg/mL (≈ 48.1 µM), the MIC (Aspergillus niger) was 0.25 µg/mL (≈ 0.376 µM) and the MIC50 (Aspergillus sp.) was 32 µg/mL (≈ 48.1 µM). The MIC90 (Aspergillus sp.) was 32 µg/mL (≈ 48.1 µM).

Source: ChEMBL document CHEMBL1649133, “In vitro comparison of the efficacies of natamycin and silver nitrate against ocular fungi” (2009)
